Tested on: bladder cancer
Assay: Tumour response according to RECIST v1.1, expansion phase, bladder cancer
Format: in vivo, human
Settings: expansion Bladder cancer (n = 13)
Description: Patients could be considered for enrolment in one of three disease-specific cohorts: (1) advanced or recurrent endometrial adenocarcinoma with disease progression following ≥1 prior chemotherapy regimen; (2) advanced/metastatic urothelial cancer (carcinoma of the bladder, ureter and/or renal pelvis), progressive after ≥1 prior therapy in the metastatic/unresectable setting; (3) advanced RCC after failure of ≥1 prior antivascular endothelial growth factor therapy with no prior TORC1 inhibitor therapy, or progressed on treatment with TORC1 inhibitor therapy.

## CC(C)n1nc(-c2ccc3oc(N)nc3c2)c2c(N)ncnc21 [Sapanisertib]
  Best overall response CR: 0 n (%)
  Best overall response PD: 8 (62) n (%)
  Best overall response PR: 0 n (%)
  Best overall response SD < 6 months: 4 (31) n (%)
  Best overall response SD ≥ 6 months: 1 (8) n (%)
  CBR (CR + PR + SD ≥ 6 months): 1 (8) n (%)
  ORR (CR + PR): 0 n (%)

Source: publication PMC7686313, “Phase 1 study of mTORC1/2 inhibitor sapanisertib (TAK-228) in advanced solid tumours, with an expansion phase in renal, endometrial or bladder cancer” (British Journal of Cancer, 2020)
